# Target: T1, Bifunctional epoxide hydrolase 2 (Homo sapiens, UniProt P34913)
# T1 sequence (P34913 whole entry): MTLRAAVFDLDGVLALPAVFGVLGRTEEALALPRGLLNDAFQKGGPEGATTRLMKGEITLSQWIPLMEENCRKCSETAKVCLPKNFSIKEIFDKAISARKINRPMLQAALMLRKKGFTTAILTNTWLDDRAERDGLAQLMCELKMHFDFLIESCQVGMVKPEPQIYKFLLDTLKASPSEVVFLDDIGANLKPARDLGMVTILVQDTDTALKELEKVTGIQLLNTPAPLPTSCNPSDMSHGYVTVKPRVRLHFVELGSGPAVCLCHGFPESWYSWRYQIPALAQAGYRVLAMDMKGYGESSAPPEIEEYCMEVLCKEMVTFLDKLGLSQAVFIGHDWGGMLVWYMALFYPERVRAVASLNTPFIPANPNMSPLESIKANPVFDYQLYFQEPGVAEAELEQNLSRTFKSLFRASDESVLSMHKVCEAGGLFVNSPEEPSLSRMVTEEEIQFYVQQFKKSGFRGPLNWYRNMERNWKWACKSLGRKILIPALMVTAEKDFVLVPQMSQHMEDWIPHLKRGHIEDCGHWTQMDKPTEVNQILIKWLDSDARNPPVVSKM
# Assay: not given
# Conditions: not given
row,Structure (SMILES),IC50
1,Cc1cc(NC(=O)NC23CC4CC(CC(C4)C2)C3)no1,136 nM
2,Cc1cc(CNC(=O)NC23CC4CC(CC(C4)C2)C3)no1,1550 nM
3,O=C(Nc1nnc(C2CC2)o1)NC12CC3CC(CC(C3)C1)C2,503 nM
4,Cc1nc(NS(=O)(=O)c2ccc(NC(=O)NC34CC5CC(CC(C5)C3)C4)cc2)oc1C,13 nM
5,Cc1noc(NS(=O)(=O)c2ccc(NC(=O)NC34CC5CC(CC(C5)C3)C4)cc2)c1C,31 nM

# Tested on: not given
# Assay: not given
# Conditions: buffer, 18 h, pH 7.4
row,Structure (SMILES),solubility
1,Cc1cc(NC(=O)NC23CC4CC(CC(C4)C2)C3)no1,25.9 µg/mL
2,Cc1cc(CNC(=O)NC23CC4CC(CC(C4)C2)C3)no1,3 µg/mL
3,O=C(Nc1nnc(C2CC2)o1)NC12CC3CC(CC(C3)C1)C2,38.3 µg/mL
4,Cc1nc(NS(=O)(=O)c2ccc(NC(=O)NC34CC5CC(CC(C5)C3)C4)cc2)oc1C,27.1 µg/mL
5,Cc1noc(NS(=O)(=O)c2ccc(NC(=O)NC34CC5CC(CC(C5)C3)C4)cc2)c1C,27.3 µg/mL

# Tested on: Pseudomonas aeruginosa
# Assay: microbe, parasite or virus in culture
# Conditions: not given
row,Structure (SMILES),MIC
1,Cc1cc(NC(=O)NC23CC4CC(CC(C4)C2)C3)no1,> 200 µg/mL
2,Cc1cc(CNC(=O)NC23CC4CC(CC(C4)C2)C3)no1,> 200 µg/mL
3,O=C(Nc1nnc(C2CC2)o1)NC12CC3CC(CC(C3)C1)C2,> 200 µg/mL
4,Cc1nc(NS(=O)(=O)c2ccc(NC(=O)NC34CC5CC(CC(C5)C3)C4)cc2)oc1C,> 200 µg/mL
5,Cc1noc(NS(=O)(=O)c2ccc(NC(=O)NC34CC5CC(CC(C5)C3)C4)cc2)c1C,> 200 µg/mL

# Tested on: Proteus vulgaris
# Assay: microbe, parasite or virus in culture
# Conditions: not given
row,Structure (SMILES),MIC
1,Cc1cc(NC(=O)NC23CC4CC(CC(C4)C2)C3)no1,> 200 µg/mL
2,Cc1cc(CNC(=O)NC23CC4CC(CC(C4)C2)C3)no1,> 200 µg/mL
3,O=C(Nc1nnc(C2CC2)o1)NC12CC3CC(CC(C3)C1)C2,> 200 µg/mL
4,Cc1nc(NS(=O)(=O)c2ccc(NC(=O)NC34CC5CC(CC(C5)C3)C4)cc2)oc1C,> 200 µg/mL
5,Cc1noc(NS(=O)(=O)c2ccc(NC(=O)NC34CC5CC(CC(C5)C3)C4)cc2)c1C,> 200 µg/mL

# Tested on: Proteus mirabilis
# Assay: microbe, parasite or virus in culture
# Conditions: not given
row,Structure (SMILES),MIC
1,Cc1cc(NC(=O)NC23CC4CC(CC(C4)C2)C3)no1,> 200 µg/mL
2,Cc1cc(CNC(=O)NC23CC4CC(CC(C4)C2)C3)no1,> 200 µg/mL
3,O=C(Nc1nnc(C2CC2)o1)NC12CC3CC(CC(C3)C1)C2,> 200 µg/mL
4,Cc1nc(NS(=O)(=O)c2ccc(NC(=O)NC34CC5CC(CC(C5)C3)C4)cc2)oc1C,> 200 µg/mL
5,Cc1noc(NS(=O)(=O)c2ccc(NC(=O)NC34CC5CC(CC(C5)C3)C4)cc2)c1C,> 200 µg/mL

# Tested on: Klebsiella pneumoniae
# Assay: microbe, parasite or virus in culture
# Conditions: not given
row,Structure (SMILES),MIC
1,Cc1cc(NC(=O)NC23CC4CC(CC(C4)C2)C3)no1,> 200 µg/mL
2,Cc1cc(CNC(=O)NC23CC4CC(CC(C4)C2)C3)no1,> 200 µg/mL
3,O=C(Nc1nnc(C2CC2)o1)NC12CC3CC(CC(C3)C1)C2,> 200 µg/mL
4,Cc1nc(NS(=O)(=O)c2ccc(NC(=O)NC34CC5CC(CC(C5)C3)C4)cc2)oc1C,> 200 µg/mL
5,Cc1noc(NS(=O)(=O)c2ccc(NC(=O)NC34CC5CC(CC(C5)C3)C4)cc2)c1C,> 200 µg/mL

# Tested on: Escherichia coli
# Assay: microbe, parasite or virus in culture
# Conditions: K-12
row,Structure (SMILES),MIC
1,Cc1cc(NC(=O)NC23CC4CC(CC(C4)C2)C3)no1,> 200 µg/mL
2,Cc1cc(CNC(=O)NC23CC4CC(CC(C4)C2)C3)no1,> 200 µg/mL
3,O=C(Nc1nnc(C2CC2)o1)NC12CC3CC(CC(C3)C1)C2,> 200 µg/mL
4,Cc1nc(NS(=O)(=O)c2ccc(NC(=O)NC34CC5CC(CC(C5)C3)C4)cc2)oc1C,> 200 µg/mL
5,Cc1noc(NS(=O)(=O)c2ccc(NC(=O)NC34CC5CC(CC(C5)C3)C4)cc2)c1C,> 200 µg/mL

# Tested on: Burkholderia cepacia
# Assay: microbe, parasite or virus in culture
# Conditions: not given
row,Structure (SMILES),MIC
1,Cc1cc(NC(=O)NC23CC4CC(CC(C4)C2)C3)no1,> 200 µg/mL
2,Cc1cc(CNC(=O)NC23CC4CC(CC(C4)C2)C3)no1,> 200 µg/mL
3,O=C(Nc1nnc(C2CC2)o1)NC12CC3CC(CC(C3)C1)C2,> 200 µg/mL
4,Cc1nc(NS(=O)(=O)c2ccc(NC(=O)NC34CC5CC(CC(C5)C3)C4)cc2)oc1C,> 200 µg/mL
5,Cc1noc(NS(=O)(=O)c2ccc(NC(=O)NC34CC5CC(CC(C5)C3)C4)cc2)c1C,> 200 µg/mL

# Tested on: Bacillus subtilis
# Assay: microbe, parasite or virus in culture
# Conditions: not given
row,Structure (SMILES),MIC
1,Cc1cc(NC(=O)NC23CC4CC(CC(C4)C2)C3)no1,200 µg/mL
2,Cc1cc(CNC(=O)NC23CC4CC(CC(C4)C2)C3)no1,> 200 µg/mL
3,O=C(Nc1nnc(C2CC2)o1)NC12CC3CC(CC(C3)C1)C2,100 µg/mL
4,Cc1nc(NS(=O)(=O)c2ccc(NC(=O)NC34CC5CC(CC(C5)C3)C4)cc2)oc1C,> 200 µg/mL
5,Cc1noc(NS(=O)(=O)c2ccc(NC(=O)NC34CC5CC(CC(C5)C3)C4)cc2)c1C,> 200 µg/mL

# Tested on: Acinetobacter
# Assay: microbe, parasite or virus in culture
# Conditions: not given
row,Structure (SMILES),MIC
1,Cc1cc(NC(=O)NC23CC4CC(CC(C4)C2)C3)no1,> 200 µg/mL
2,Cc1cc(CNC(=O)NC23CC4CC(CC(C4)C2)C3)no1,> 200 µg/mL
3,O=C(Nc1nnc(C2CC2)o1)NC12CC3CC(CC(C3)C1)C2,> 200 µg/mL
4,Cc1nc(NS(=O)(=O)c2ccc(NC(=O)NC34CC5CC(CC(C5)C3)C4)cc2)oc1C,> 200 µg/mL
5,Cc1noc(NS(=O)(=O)c2ccc(NC(=O)NC34CC5CC(CC(C5)C3)C4)cc2)c1C,> 200 µg/mL

# Tested on: Streptococcus pneumoniae
# Assay: microbe, parasite or virus in culture
# Conditions: not given
row,Structure (SMILES),MIC
1,Cc1cc(NC(=O)NC23CC4CC(CC(C4)C2)C3)no1,> 200 µg/mL
2,Cc1cc(CNC(=O)NC23CC4CC(CC(C4)C2)C3)no1,> 200 µg/mL
3,O=C(Nc1nnc(C2CC2)o1)NC12CC3CC(CC(C3)C1)C2,> 200 µg/mL
4,Cc1nc(NS(=O)(=O)c2ccc(NC(=O)NC34CC5CC(CC(C5)C3)C4)cc2)oc1C,> 200 µg/mL
5,Cc1noc(NS(=O)(=O)c2ccc(NC(=O)NC34CC5CC(CC(C5)C3)C4)cc2)c1C,> 200 µg/mL

# Tested on: Streptococcus pyogenes
# Assay: microbe, parasite or virus in culture
# Conditions: not given
row,Structure (SMILES),MIC
1,Cc1cc(NC(=O)NC23CC4CC(CC(C4)C2)C3)no1,> 200 µg/mL
2,Cc1cc(CNC(=O)NC23CC4CC(CC(C4)C2)C3)no1,> 200 µg/mL
3,O=C(Nc1nnc(C2CC2)o1)NC12CC3CC(CC(C3)C1)C2,> 200 µg/mL
4,Cc1nc(NS(=O)(=O)c2ccc(NC(=O)NC34CC5CC(CC(C5)C3)C4)cc2)oc1C,> 200 µg/mL
5,Cc1noc(NS(=O)(=O)c2ccc(NC(=O)NC34CC5CC(CC(C5)C3)C4)cc2)c1C,> 200 µg/mL

# Tested on: Staphylococcus aureus
# Assay: microbe, parasite or virus in culture
# Conditions: NRS70
row,Structure (SMILES),MIC
1,Cc1cc(NC(=O)NC23CC4CC(CC(C4)C2)C3)no1,> 200 µg/mL
2,Cc1cc(CNC(=O)NC23CC4CC(CC(C4)C2)C3)no1,> 200 µg/mL
3,O=C(Nc1nnc(C2CC2)o1)NC12CC3CC(CC(C3)C1)C2,> 200 µg/mL
4,Cc1nc(NS(=O)(=O)c2ccc(NC(=O)NC34CC5CC(CC(C5)C3)C4)cc2)oc1C,> 200 µg/mL
5,Cc1noc(NS(=O)(=O)c2ccc(NC(=O)NC34CC5CC(CC(C5)C3)C4)cc2)c1C,> 200 µg/mL

# Tested on: Staphylococcus aureus
# Assay: microbe, parasite or virus in culture
# Conditions: ATCC 29213
row,Structure (SMILES),MIC
1,Cc1cc(NC(=O)NC23CC4CC(CC(C4)C2)C3)no1,200 µg/mL
2,Cc1cc(CNC(=O)NC23CC4CC(CC(C4)C2)C3)no1,> 200 µg/mL
3,O=C(Nc1nnc(C2CC2)o1)NC12CC3CC(CC(C3)C1)C2,> 200 µg/mL
4,Cc1nc(NS(=O)(=O)c2ccc(NC(=O)NC34CC5CC(CC(C5)C3)C4)cc2)oc1C,> 200 µg/mL
5,Cc1noc(NS(=O)(=O)c2ccc(NC(=O)NC34CC5CC(CC(C5)C3)C4)cc2)c1C,> 200 µg/mL

# Tested on: Enterococcus faecalis
# Assay: microbe, parasite or virus in culture
# Conditions: not given
row,Structure (SMILES),MIC
1,Cc1cc(NC(=O)NC23CC4CC(CC(C4)C2)C3)no1,> 200 µg/mL
2,Cc1cc(CNC(=O)NC23CC4CC(CC(C4)C2)C3)no1,> 200 µg/mL
3,O=C(Nc1nnc(C2CC2)o1)NC12CC3CC(CC(C3)C1)C2,> 200 µg/mL
4,Cc1nc(NS(=O)(=O)c2ccc(NC(=O)NC34CC5CC(CC(C5)C3)C4)cc2)oc1C,> 200 µg/mL
5,Cc1noc(NS(=O)(=O)c2ccc(NC(=O)NC34CC5CC(CC(C5)C3)C4)cc2)c1C,> 200 µg/mL

# Tested on: Bacillus anthracis
# Assay: microbe, parasite or virus in culture
# Conditions: Sterne
row,Structure (SMILES),MIC
1,Cc1cc(NC(=O)NC23CC4CC(CC(C4)C2)C3)no1,> 200 µg/mL
2,Cc1cc(CNC(=O)NC23CC4CC(CC(C4)C2)C3)no1,> 200 µg/mL
3,O=C(Nc1nnc(C2CC2)o1)NC12CC3CC(CC(C3)C1)C2,50 µg/mL
4,Cc1nc(NS(=O)(=O)c2ccc(NC(=O)NC34CC5CC(CC(C5)C3)C4)cc2)oc1C,> 200 µg/mL
5,Cc1noc(NS(=O)(=O)c2ccc(NC(=O)NC34CC5CC(CC(C5)C3)C4)cc2)c1C,> 200 µg/mL

# Tested on: Mycobacterium tuberculosis
# Assay: microbe, parasite or virus in culture
# Conditions: H37Rv, 168 h
row,Structure (SMILES),MIC
1,Cc1cc(NC(=O)NC23CC4CC(CC(C4)C2)C3)no1,27 µg/mL
2,Cc1cc(CNC(=O)NC23CC4CC(CC(C4)C2)C3)no1,> 50 µg/mL
3,O=C(Nc1nnc(C2CC2)o1)NC12CC3CC(CC(C3)C1)C2,12.5 µg/mL
4,Cc1nc(NS(=O)(=O)c2ccc(NC(=O)NC34CC5CC(CC(C5)C3)C4)cc2)oc1C,> 25 µg/mL
5,Cc1noc(NS(=O)(=O)c2ccc(NC(=O)NC34CC5CC(CC(C5)C3)C4)cc2)c1C,25 µg/mL
